Experimental data published in paper PMC11801715, “Activating PKC-ε induces HIV expression with improved tolerability” (PLOS Pathogens, 2025).
pEC50: −log10 of the molar value. Where “and” joins values, the source holds several entries; their conditions need not be identical. Equal values may be shown once.

Key:
[1] = system: platelets (CD62P+) and CD4+ T cells (CD69+) in whole blood; assay: In vitro whole blood platelet and CD4+ T-cell activation assay; assay type: cell-based, human; conditions: for CD62P EC50/CD69 EC50 ratio Geomean: whole blood from healthy donors, platelets to CD4+ T cells
Method: We developed a novel human whole blood assay to determine whether other PKC agonists also activate platelets at the same concentrations that are required to activate CD4^+ T cells. Platelet activation was assessed by CD62P (P-selectin), which traffics to the cell surface upon activation and α-granule release. CD4^+ T-cell activation was assessed by CD69 upregulation (Fig 7A).
Whole blood was drawn into sodium citrate tubes using a 21-gauge needle. To prevent potential interference from tissue thromboplastin released during venipuncture, which could affect the accuracy of coagulation testing, the first 2 mL of blood drawn was discarded. PKC agonist molecules were dispensed in a dilution series into 80 μL of blood per well in a flat-bottom 96-well plate and mixed gently. Care was taken not to introduce any mechanical stress-related activation of platelets. […] The remaining 72 μL of blood in the first plate was incubated for 1 additional hour and stained with anti-human CD3 (UCHT1), CD4 (SK3), and CD69 (FN50) (30 minutes in the dark). Red blood cell lysis and fixing was done using BD lyse/fix solution. Stained cells were acquired on BD LSR Fortessa II after washing. […] EC50 values for platelet and CD4 T-cell activation for each agonist was obtained by nonlinear regression curve fit using GraphPad Prism version 9.3.0.

Plasma PK in rats = assay type: in vivo, rat; conditions: slow IV infusion
Method: Wild-type male Sprague Dawley (Hsd: Sprague Dawley SD) rats (8–15 weeks old) were sourced from the Covance stock colony for conduct of in vivo studies at Covance Laboratories Inc. (Madison, Wisconsin, USA). Rats were administered a single dose of vehicle control (n = 3), or 0.1, 0.3, 1, or 3 mg/kg C-232A (n = 6), or 10 mg/kg C-233 by intravenous infusion over 30 minutes. Blood samples were collected through 24 hours postdose. Samples for PK measurement of C-232A concentration were processed to plasma and shipped to Gilead Sciences (Foster City, California, USA). Samples were analyzed at Covance Laboratories for hematology and clinical chemistry panels. At unscheduled necropsy (3 mg/kg C-232A), tissues were preserved in 10% neutral-buffered formalin, embedded in paraffin, mounted on slides, and stained with hematoxylin and eosin. Tissues were then evaluated independently (Experimental Pathology Laboratories, Inc).
Rat and rhesus plasma samples (20 µL aliquot of each) were treated with 100 µL acetonitrile containing a generic internal small-molecule standard. […] The descriptive PK parameters were analyzed using noncompartmental analysis with Phoenix WinNonlin software (version 8.2, Certara USA, Inc.). The area under the plasma concentration–time curve (AUClast) values were calculated using the linear trapezoid method.

PBMCs = assay: Cytokine induction in vitro in PBMC culture supernatants; assay type: cell-based, human; conditions: 24 hours
Method: Culture supernatants were analyzed for induction of several cytokines as shown in S3 Table, using a 10-plex MSD (Meso Scale Discovery) assay following manufacturer’s instructions. MSD Workbench 4.0 software was used for data analysis and 4-parameter logistic curve fit model was utilized to determine values of experimental samples from standard curves. Values for each cytokine (pg/mL) for a given concentration was calculated as the geometric mean of all triplicate values combined from all 5 donors.

PKC-δ = PKC-δ (Homo sapiens, UniProt Q05655); assay: PKC isoform translocation in A549-tGFP cells; assay type: cell-based; parameters: host or cells: A549; conditions: for pEC50: A549-tGFP cells, 60 minutes, read-out: EC50 for PKC-δ translocation; for ε selectivity, PKC-δ: EC50 of PKC-δ divided by EC50 of PKC-ε
Method: (§1) A description of this effort is reported elsewhere.
(§2) Cellular translocation of PKC isoforms upon activation was determined in 8 A549 cell lines, each expressing a single PKC isoform fused to tGFP (PhenoVista Biosciences). Cells were plated in 384-well plates (80 μL/well) at 10^5 cells/mL in RPMI with 10% FBS and rested overnight. PKC agonist(s) were serially diluted at 1:3 steps in DMSO and added to the cells. After 60 minutes in an incubator at 37 °C, 5% CO2, cells were stained with Hoechst-33342 and fixed with 2% paraformaldehyde for 30 minutes at 4 °C. Cells were then stained with wheat germ agglutinin conjugated to AlexaFluor647 (WGA-647) for 10 minutes at 4 °C, washed to remove excess dye and imaged with Cellomics Array Scan (Thermo Fisher) at room temperature (RT). Images were analyzed using Cellomics automated image analysis algorithm. Plasma membrane translocation was quantified using the ratio between the average fluorescence in the areas at the cell edge defined by WGA-647 and the cytoplasm region.

PKC-η = PKC-η (Homo sapiens, UniProt P24723); assay: PKC isoform translocation in A549-tGFP cells; assay type: cell-based; parameters: host or cells: A549; conditions: for pEC50: A549-tGFP cells, 60 minutes; for ε selectivity, PKC-η: EC50 of PKC-η divided by EC50 of PKC-ε
Method: as §1, §2

PKC-θ = PKC-θ (Homo sapiens, UniProt Q04759); assay: PKC isoform translocation in A549-tGFP cells; assay type: cell-based; parameters: host or cells: A549; conditions: for pEC50: A549-tGFP cells, 60 minutes; for ε selectivity, PKC-θ: EC50 of PKC-θ divided by EC50 of PKC-ε
Method: as §1, §2

Sequence of PKC-η (P24723 whole entry, canonical isoform): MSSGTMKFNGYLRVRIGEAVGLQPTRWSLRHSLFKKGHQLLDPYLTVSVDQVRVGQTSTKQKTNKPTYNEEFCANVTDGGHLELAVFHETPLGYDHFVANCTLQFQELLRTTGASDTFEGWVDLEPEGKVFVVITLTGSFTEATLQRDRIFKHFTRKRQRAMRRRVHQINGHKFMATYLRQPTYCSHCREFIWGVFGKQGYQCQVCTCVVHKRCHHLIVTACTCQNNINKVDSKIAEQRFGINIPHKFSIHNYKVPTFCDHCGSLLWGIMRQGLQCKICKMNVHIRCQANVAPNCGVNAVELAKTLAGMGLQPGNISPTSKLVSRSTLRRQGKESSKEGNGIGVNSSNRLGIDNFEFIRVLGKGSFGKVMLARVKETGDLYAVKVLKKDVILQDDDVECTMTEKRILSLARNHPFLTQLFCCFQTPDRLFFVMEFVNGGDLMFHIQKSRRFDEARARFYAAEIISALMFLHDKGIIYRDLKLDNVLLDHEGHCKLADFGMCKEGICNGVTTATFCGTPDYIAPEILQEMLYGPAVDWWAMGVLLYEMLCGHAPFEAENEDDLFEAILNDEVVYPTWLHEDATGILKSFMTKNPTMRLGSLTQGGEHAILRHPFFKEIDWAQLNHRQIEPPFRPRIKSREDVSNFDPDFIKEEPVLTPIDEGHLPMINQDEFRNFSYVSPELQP
Sequence of PKC-δ (Q05655 whole entry, canonical isoform): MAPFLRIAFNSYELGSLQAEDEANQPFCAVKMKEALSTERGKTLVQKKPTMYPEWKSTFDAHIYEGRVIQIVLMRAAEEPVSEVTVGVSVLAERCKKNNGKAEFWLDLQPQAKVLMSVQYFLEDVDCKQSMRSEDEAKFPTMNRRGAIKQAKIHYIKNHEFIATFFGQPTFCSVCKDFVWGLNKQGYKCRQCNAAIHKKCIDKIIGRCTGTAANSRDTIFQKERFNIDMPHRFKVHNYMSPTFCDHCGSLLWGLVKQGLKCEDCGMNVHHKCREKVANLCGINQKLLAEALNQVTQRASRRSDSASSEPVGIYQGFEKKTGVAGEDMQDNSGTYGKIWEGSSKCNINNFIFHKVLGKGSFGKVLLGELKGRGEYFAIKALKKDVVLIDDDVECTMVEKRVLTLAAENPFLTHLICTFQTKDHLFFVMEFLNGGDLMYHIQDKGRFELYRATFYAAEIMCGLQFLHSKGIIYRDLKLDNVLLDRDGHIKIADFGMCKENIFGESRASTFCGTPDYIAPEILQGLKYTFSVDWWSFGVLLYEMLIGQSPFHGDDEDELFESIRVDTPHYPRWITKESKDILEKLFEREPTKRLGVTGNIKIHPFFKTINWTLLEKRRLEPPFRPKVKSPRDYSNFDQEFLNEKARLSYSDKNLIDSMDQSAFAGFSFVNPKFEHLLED
Sequence of PKC-θ (Q04759 whole entry, canonical isoform): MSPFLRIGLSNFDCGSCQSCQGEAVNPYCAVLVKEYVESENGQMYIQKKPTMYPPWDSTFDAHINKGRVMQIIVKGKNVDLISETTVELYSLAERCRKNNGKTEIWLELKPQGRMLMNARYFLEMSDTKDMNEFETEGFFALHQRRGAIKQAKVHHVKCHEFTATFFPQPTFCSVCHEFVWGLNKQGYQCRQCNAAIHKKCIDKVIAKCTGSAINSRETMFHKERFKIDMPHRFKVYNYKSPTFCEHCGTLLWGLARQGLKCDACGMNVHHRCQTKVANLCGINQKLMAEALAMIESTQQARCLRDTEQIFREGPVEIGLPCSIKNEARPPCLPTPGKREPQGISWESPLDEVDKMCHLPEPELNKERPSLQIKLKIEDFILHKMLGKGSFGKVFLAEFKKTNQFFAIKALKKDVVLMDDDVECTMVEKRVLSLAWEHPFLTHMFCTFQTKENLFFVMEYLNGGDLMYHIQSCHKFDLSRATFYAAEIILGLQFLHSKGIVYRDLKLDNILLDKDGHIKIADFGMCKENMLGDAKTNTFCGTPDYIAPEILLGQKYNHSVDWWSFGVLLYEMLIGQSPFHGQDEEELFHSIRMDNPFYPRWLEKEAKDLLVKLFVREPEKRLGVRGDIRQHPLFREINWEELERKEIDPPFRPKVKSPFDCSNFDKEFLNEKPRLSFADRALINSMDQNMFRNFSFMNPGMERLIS

Row | Compound | CD62P EC50/CD69 EC50 ratio Geomean [1] | GM-CSF in PBMC culture supernatant (PBMCs; 156 nM) [pg/mL] | IFN-γ in PBMC culture supernatant (PBMCs; 156 nM) [pg/mL] | IL-1b in PBMC culture supernatant (PBMCs; 156 nM) [pg/mL] | IL-2 in PBMC culture supernatant (PBMCs; 156 nM) [pg/mL] | IL-4 in PBMC culture supernatant (PBMCs; 156 nM) [pg/mL] | IL-6 in PBMC culture supernatant (PBMCs; 156 nM) [pg/mL] | IL-8 in PBMC culture supernatant (PBMCs; 156 nM) | IL-10 in PBMC culture supernatant (PBMCs; 156 nM) [pg/mL] | IL-12p70 in PBMC culture supernatant (PBMCs; 156 nM) [pg/mL] | TNF-α in PBMC culture supernatant (PBMCs; 156 nM) [pg/mL] | GM-CSF in PBMC culture supernatant (PBMCs; 625 nM) [pg/mL] | IFN-γ in PBMC culture supernatant (PBMCs; 625 nM) [pg/mL] | IL-1b in PBMC culture supernatant (PBMCs; 625 nM) [pg/mL] | IL-2 in PBMC culture supernatant (PBMCs; 625 nM) [pg/mL] | IL-4 in PBMC culture supernatant (PBMCs; 625 nM) [pg/mL] | IL-6 in PBMC culture supernatant (PBMCs; 625 nM) [pg/mL] | IL-8 in PBMC culture supernatant (PBMCs; 625 nM) | IL-10 in PBMC culture supernatant (PBMCs; 625 nM) [pg/mL] | IL-12p70 in PBMC culture supernatant (PBMCs; 625 nM) [pg/mL] | also measured
1 | Cc1ccc(C#Cc2ccc(C(=O)OCC3(CO)Cc4c(-c5ccccc5)ccnc4O3)cc2)cc1 (stereo not shown) [C-233] | 5.1 | 14 | 215 | 42 | 10 | 0.3 | 40 | 36,739 pg/mL | 4 | 5 | 308 | 30 | 135 | 60 | 14 | 0.6 | 44 | 45,465 pg/mL | 4 | 9 | more potent for T-cell activation relative to platelet activation ([1]; whole blood): 5 fold; improvement relative to the other classes of PKC agonists tested ([1]; whole blood, T-cell versus platelet potency): 2.4- to 3 fold; PK profile (Plasma PK in rats; 1, 3, and 10 mg/kg, n = 3 male rats/group): Dose-dependent increases in the PK profile; TNF-α in PBMC culture supernatant (PBMCs; 625 nM): 834 pg/mL; pEC50 (PKC-δ): 4.33; ε selectivity, PKC-δ (PKC-δ): 196; pEC50 (PKC-η): 5.96; ε selectivity, PKC-η (PKC-η): 5; pEC50 (PKC-θ): 5.82; ε selectivity, PKC-θ (PKC-θ): 6
2 | Cc1ccc(C#Cc2ccc3oc(CC(C)(C)C(=O)OCC4(CO)CC(=CCC(CC(C)C)CC(C)C)C(=O)O4)cc3c2)cc1 (stereo not shown) [C-232A] | 1.7 | 40 | 202 | 72 | 14 | 0.4 | 84 | 43,224 pg/mL | 4.9 | 7 | 883 | 71 | 172 | 125 | 17 | 0.6 | 100 | 45,964 pg/mL | 3.6 | 9 | PK plasma profile (Plasma PK in rats; 0.1, 0.3, 1, and 3 mg/kg): dose-dependent C-232A PK plasma profiles; TNF-α in PBMC culture supernatant (PBMCs; 625 nM): 1424 pg/mL; pEC50 (PKC-δ): 6.15; ε selectivity, PKC-δ (PKC-δ): 12; pEC50 (PKC-η): 7.00; ε selectivity, PKC-η (PKC-η): 2; pEC50 (PKC-θ): 6.75 and 6.74; ε selectivity, PKC-θ (PKC-θ): 3
